Experimental findings from US11286263B2, “Macrocyclic fluorine substituted indole derivatives” (The Broad Institute, Inc., priority 2017, dated 2022) are described below.

The target in this experiment is MCL-1 (Homo sapiens (Human), UniProt Q07820, K194A/K197A/R201A). As to the kind of experiment: Protein-protein interaction assay MCL-1/Noxa BH3 peptide (MCL-1 assay), TR-FRET. Format: binding. Conditions: MCL-1/Noxa BH3 peptide TR-FRET; median. In a few lines:
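TR-FRET competition between MBP-MCL-1 (173-321, 1 nM) and biotin-Noxa BH3 peptide (1 nM) with anti-MBP-Eu/streptavidin-XL665; 11 compound levels 0.1 nM–20 μM, 10 min preincubation. Incubated 1 h at 22 °C then overnight at 4 °C, pH 7 Tris buffer. 665/620 ratio normalized to DMSO and no-MCL-1; 4-parameter IC50.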
On the technique in general: Time-resolved FRET reads energy transfer from a long-lived donor to a nearby acceptor.

As a reminder, the IC50 is the midpoint of a concentration-inhibition curve. Low readings indicate higher potency, high ones lower potency.

Structures can show the parent of a compound that is named as a salt.

Chain of MCL-1 (Q07820 whole entry K194A/K197A/R201A, looked up): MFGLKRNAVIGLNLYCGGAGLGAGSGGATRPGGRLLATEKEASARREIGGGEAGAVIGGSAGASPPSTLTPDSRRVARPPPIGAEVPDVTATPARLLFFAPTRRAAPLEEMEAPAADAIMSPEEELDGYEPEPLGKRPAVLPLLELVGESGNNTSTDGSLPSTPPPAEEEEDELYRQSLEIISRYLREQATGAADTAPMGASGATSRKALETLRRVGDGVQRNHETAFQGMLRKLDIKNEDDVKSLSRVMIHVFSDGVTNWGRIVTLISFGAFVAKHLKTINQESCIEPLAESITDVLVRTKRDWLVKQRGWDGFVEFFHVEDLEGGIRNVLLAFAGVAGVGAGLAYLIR

`CCc1c2c(nn1C)COCCCCn1c(C(=O)O)c(CCCOc3cccc4cc(F)ccc34)c3ccc(F)c-2c31` (single isomer, unassigned; enantiomer 1) [Example 24, 3-ethyl-4-fluoro-7-{3-[(6-fluoronaphthalen-1-yl)oxy]propyl}-2-methyl-2,10,11,12,13,15-hexahydropyrazolo[4′,3′:9,10][1,6]oxazacycloundecino[8,7,6-hi]indole-8-carboxylic acid (enantiomer 1)] returned an IC50 of 0.58 nM.

`CCc1c2c(nn1C)COCCCCn1c(C(=O)O)c(CCCOc3ccc(F)c4ccccc34)c3ccc(F)c-2c31` (single isomer, unassigned; enantiomer 1) [Example 27, 3-ethyl-4-fluoro-7-{3-[(4-fluoronaphthalen-1-yl)oxy]propyl}-2-methyl-2,10,11,12,13,15-hexahydropyrazolo[4′,3′:9,10][1,6]oxazacycloundecino[8,7,6-hi]indole-8-carboxylic acid-N-ethylethanamine salt (enantiomer 1)]: the half-maximal inhibitory concentration (IC50) turned out to be 1.5 nM.

In the case of `CCc1nn(C)c2c1-c1c(F)ccc3c(CCCOc4cccc5cc(F)ccc45)c(C(=O)O)n(c13)CCCCOC2` (single isomer, unassigned; enantiomer 1) [Example 39, 3-ethyl-4-fluoro-7-{3-[(6-fluoronaphthalen-1-yl)oxy]propyl}-1-methyl-1,10,11,12,13,15-hexahydropyrazolo[4′,3′:9,10][1,6]oxazacycloundecino[8,7,6-hi]indole-8-carboxylic acid-N-ethylethanamine salt (enantiomer 1)], half-maximal inhibition (IC50) was put at 0.8 nM. This IC50 is about 1.9-fold lower than that of the compound before.

The compound `CCc1nn(C)c2c1-c1c(F)ccc3c(CCCOc4ccc(F)c5ccccc45)c(C(=O)O)n(c13)CCCCOC2` (single isomer, unassigned; enantiomer 1) [Example 42, 3-ethyl-4-fluoro-7-{3-[(4-fluoronaphthalen-1-yl)oxy]propyl}-1-methyl-1,10,11,12,13,15-hexahydropyrazolo[4′,3′:9,10][1,6]oxazacycloundecino[8,7,6-hi]indole-8-carboxylic acid (enantiomer 1)] showed an IC50 of 1.7 nM.

As for `Cc1c2c(nn1C)CNCCCCn1c(C(=O)O)c(CCCOc3cccc4ccccc34)c3ccc(F)c-2c31` (single isomer, unassigned; enantiomer 1) [Example 48, 4-fluoro-2,3-dimethyl-7-{3-[(naphthalen-1-yl)oxy]propyl}-10,11,12,13,14,15-hexahydro-2H-pyrazolo[3′,4′:8,9][1,6]diazacycloundecino[10,11,1-hi]indole-8-carboxylic acid (enantiomer 1)], it took 1.1 nM to reach half-maximal inhibition (IC50). Against the preceding compound, the IC50 is about 1.5-fold lower.

In the case of `CCc1c2c(nn1C)COCCCCn1c(C(=O)O)c(CCCOc3cccc4cc(F)ccc34)c3ccc(F)c-2c31` (single isomer, unassigned; enantiomer 2) [Example 23, 3-ethyl-4-fluoro-7-{3-[(6-fluoronaphthalen-1-yl)oxy]propyl}-2-methyl-2,10,11,12,13,15-hexahydropyrazolo[4′,3′:9,10][1,6]oxazacycloundecino[8,7,6-hi]indole-8-carboxylic acid-N-ethylethanamine salt (enantiomer 2)], the IC50 worked out at 9.6 nM.

As to “(rac)-1-(3-((2,3-dihydro-1H-inden-4-yl)oxy)propyl)-12-ethyl-13-fluoro-11-methyl-4,5,6,7,9,11-hexahydropyrazolo[4′,3′:9,10][1]oxa[6]azacycloundecino[8,7,6-hi]indole-2-carboxylic acid [Example 30]”, the 50% inhibitory concentration (IC50) came out at 1.3 nM. Against the preceding compound, the IC50 is about 7.4-fold lower.
